Measured values from patent US11840533B2, “Pyridinone-based epigenetic modifiers and uses thereof” (THE BOARD OF TRUSTEES OF THE UNIVERSITY OF ILLINOIS, priority 2017, dated 2023).
Each block holds one compound with its values, some of them ahead of it.

Assays:
BRD4 bromodomain 1 = BRD4 bromodomain 1 (Homo sapiens (Human), UniProt O60885); test: TR-FRET BRD4 binding assay, bromodomain 1; details: read-out: TR-FRET BRD4-BD1 Ki
Experimental: (§1) Briefly, compounds were serial diluted into the 1×TR-FRET Assay Buffer with no more than 8% DMSO, and the final concentration tested was distributed from […] to 10 uM with no more than 2% DMSO. (+)JQ-1 was used as positive control. […] Then the reconstituted BRD4 bromodomain ligand/APC Acceptor Mixture were added to every well and incubate for 1 hr at room temperature. The plate was sealed with adhesive aluminum seal to prevent photobleaching. Then the plate was read in time-resolved format by exiting the well at 340 nm and reading emmission at 620 and 670 nm, using 100 us delay and 500 us read window. Data analysis was performed using the TR-FRET ratio which is the 670 nm emission/620 nm emission.

[1] = tested on: fulvestrant-resistant MCF7:5C-FR cells; test: Fulvestrant-resistant breast cancer cell viability (cell proliferation) assay; assay type: cell-based; details: for IC50: 120 h, growth inhibition in fulvestrant-resistant MCF-7:CFR cells, 120 hrs
Procedure, shortened: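 Cells were treated the day after seeding with compounds at 3 nM to 10 uM for 120 h, with 0.1% DMSO vehicle and 1 uM JQ1 as positive control. Hoechst 33342-stained (5 μg/ml, 90 min, 37 C) nuclei were imaged and counted, and cell numbers normalized to vehicle.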

BRD4 bromodomain 2 = BRD4 bromodomain 2 (Homo sapiens (Human), UniProt O60885); test: TR-FRET BRD4 binding assay, bromodomain 2; details: read-out: TR-FRET BRD4-BD2 Ki
Experimental: as §1

BET family proteins = test: BROMOscan panel of bromodomain proteins; assay type: binding; details: FIG. 6
Source text: (§2) BROMOscan is a bromodomain inhibitor binding platform provided by DiscoverX that measures the interactions between compounds and a panel of bromodomain proteins.

[2] = tested on: 3D spheroids of fulvestrant-resistant MCF-7:CFR; test: Growth of 3D spheroids of fulvestrant-resistant MCF-7:CFR; assay type: cell-based; details: FIG. 11; vs JQ1 and AZD-5153
PBRM1(5) = PBRM1(5) (Homo sapiens (Human), UniProt Q86U86); test: BROMOscan; assay type: binding
Source text: as §2

BRD3(1) = BRD3(1) (Homo sapiens (Human), UniProt Q15059); test: BROMOscan; assay type: binding
Source text: as §2

TAF1L(2) = TAF1L(2) (Homo sapiens (Human), UniProt Q8IZX4); test: BROMOscan; assay type: binding
Source text: as §2

TAF1(2) = TAF1(2) (Homo sapiens (Human), UniProt P21675); test: BROMOscan; assay type: binding
Source text: as §2

BAZ2A = BAZ2A (Homo sapiens (Human), UniProt Q9UIF9); test: BROMOscan; assay type: binding
Source text: as §2

BRDT(1, 2) = BRDT(1, 2) (Homo sapiens (Human), UniProt Q58F21); test: BROMOscan; assay type: binding
Source text: as §2

BRD2(1) = BRD2(1) (Homo sapiens (Human), UniProt P25440); test: BROMOscan; assay type: binding
Source text: as §2

BRD9 = BRD9 (Homo sapiens (Human), UniProt Q9H8M2); test: BROMOscan; assay type: binding
Source text: as §2

BRD3(2) = BRD3(2) (Homo sapiens (Human), UniProt Q15059); test: BROMOscan; assay type: binding
Source text: as §2

CECR2 = CECR2 (Homo sapiens (Human), UniProt Q9BXF3); test: BROMOscan; assay type: binding
Source text: as §2

BRDT(2) = BRDT(2) (Homo sapiens (Human), UniProt Q58F21); test: BROMOscan; assay type: binding
Source text: as §2

BRD3(1, 2) = BRD3(1, 2) (Homo sapiens (Human), UniProt Q15059); test: BROMOscan; assay type: binding
Source text: as §2

BRD1 = BRD1 (Homo sapiens (Human), UniProt O95696); test: BROMOscan; assay type: binding
Source text: as §2

BRD8(1) = BRD8(1) (Homo sapiens (Human), UniProt Q9H0E9); test: BROMOscan; assay type: binding
Source text: as §2

CREBBP = CREBBP (Homo sapiens (Human), UniProt Q92793); test: BROMOscan; assay type: binding
Source text: as §2

BRD2(2) = BRD2(2) (Homo sapiens (Human), UniProt P25440); test: BROMOscan; assay type: binding
Source text: as §2

BRPF1 = BRPF1 (Homo sapiens (Human), UniProt P55201); test: BROMOscan; assay type: binding
Source text: as §2

BRDT(1) = BRDT(1) (Homo sapiens (Human), UniProt Q58F21); test: BROMOscan; assay type: binding
Source text: as §2

BRD2(1, 2) = BRD2(1, 2) (Homo sapiens (Human), UniProt P25440); test: BROMOscan; assay type: binding
Source text: as §2

TRIM24(Bromo.) = TRIM24(Bromo.) (Homo sapiens (Human), UniProt O15164); test: BROMOscan; assay type: binding
Source text: as §2

EP300 = EP300 (Homo sapiens (Human), UniProt Q09472); test: BROMOscan; assay type: binding
Source text: as §2

BRPF1, sequence (P55201 whole entry): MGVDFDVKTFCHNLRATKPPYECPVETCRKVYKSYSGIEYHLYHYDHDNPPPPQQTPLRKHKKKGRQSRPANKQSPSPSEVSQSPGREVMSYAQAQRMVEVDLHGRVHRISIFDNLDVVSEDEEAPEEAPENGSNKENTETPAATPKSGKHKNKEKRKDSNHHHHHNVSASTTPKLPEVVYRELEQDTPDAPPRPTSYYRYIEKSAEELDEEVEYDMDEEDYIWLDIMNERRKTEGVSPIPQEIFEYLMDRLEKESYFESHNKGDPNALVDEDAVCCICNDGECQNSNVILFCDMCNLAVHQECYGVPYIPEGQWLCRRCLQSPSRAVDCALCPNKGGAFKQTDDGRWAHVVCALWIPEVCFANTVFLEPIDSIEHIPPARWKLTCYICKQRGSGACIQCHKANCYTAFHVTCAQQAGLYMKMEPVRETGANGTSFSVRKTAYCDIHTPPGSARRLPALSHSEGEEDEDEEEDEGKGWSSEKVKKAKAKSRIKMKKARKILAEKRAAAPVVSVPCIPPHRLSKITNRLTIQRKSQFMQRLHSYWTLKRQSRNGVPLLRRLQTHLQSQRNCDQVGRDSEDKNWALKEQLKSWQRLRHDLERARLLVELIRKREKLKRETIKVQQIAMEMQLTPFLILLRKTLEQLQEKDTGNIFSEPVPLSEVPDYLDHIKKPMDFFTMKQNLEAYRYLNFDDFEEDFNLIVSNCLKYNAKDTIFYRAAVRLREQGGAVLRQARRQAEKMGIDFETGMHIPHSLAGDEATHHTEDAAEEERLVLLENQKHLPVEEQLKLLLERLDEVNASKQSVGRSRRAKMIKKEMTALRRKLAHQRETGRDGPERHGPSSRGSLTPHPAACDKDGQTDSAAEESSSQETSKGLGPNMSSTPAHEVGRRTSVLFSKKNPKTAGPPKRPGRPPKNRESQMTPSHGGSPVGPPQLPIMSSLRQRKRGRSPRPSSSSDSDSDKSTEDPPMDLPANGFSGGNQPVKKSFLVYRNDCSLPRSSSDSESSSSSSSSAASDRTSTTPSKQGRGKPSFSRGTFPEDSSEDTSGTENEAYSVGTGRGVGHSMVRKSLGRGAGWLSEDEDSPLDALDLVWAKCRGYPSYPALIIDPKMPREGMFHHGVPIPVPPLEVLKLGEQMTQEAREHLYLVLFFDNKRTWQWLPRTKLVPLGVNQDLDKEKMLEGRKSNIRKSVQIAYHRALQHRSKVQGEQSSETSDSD
BRD2(2), sequence (P25440 344-453): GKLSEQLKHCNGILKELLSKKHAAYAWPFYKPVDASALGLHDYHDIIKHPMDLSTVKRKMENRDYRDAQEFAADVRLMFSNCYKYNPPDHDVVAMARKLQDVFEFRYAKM
BRD1, sequence (O95696 whole entry): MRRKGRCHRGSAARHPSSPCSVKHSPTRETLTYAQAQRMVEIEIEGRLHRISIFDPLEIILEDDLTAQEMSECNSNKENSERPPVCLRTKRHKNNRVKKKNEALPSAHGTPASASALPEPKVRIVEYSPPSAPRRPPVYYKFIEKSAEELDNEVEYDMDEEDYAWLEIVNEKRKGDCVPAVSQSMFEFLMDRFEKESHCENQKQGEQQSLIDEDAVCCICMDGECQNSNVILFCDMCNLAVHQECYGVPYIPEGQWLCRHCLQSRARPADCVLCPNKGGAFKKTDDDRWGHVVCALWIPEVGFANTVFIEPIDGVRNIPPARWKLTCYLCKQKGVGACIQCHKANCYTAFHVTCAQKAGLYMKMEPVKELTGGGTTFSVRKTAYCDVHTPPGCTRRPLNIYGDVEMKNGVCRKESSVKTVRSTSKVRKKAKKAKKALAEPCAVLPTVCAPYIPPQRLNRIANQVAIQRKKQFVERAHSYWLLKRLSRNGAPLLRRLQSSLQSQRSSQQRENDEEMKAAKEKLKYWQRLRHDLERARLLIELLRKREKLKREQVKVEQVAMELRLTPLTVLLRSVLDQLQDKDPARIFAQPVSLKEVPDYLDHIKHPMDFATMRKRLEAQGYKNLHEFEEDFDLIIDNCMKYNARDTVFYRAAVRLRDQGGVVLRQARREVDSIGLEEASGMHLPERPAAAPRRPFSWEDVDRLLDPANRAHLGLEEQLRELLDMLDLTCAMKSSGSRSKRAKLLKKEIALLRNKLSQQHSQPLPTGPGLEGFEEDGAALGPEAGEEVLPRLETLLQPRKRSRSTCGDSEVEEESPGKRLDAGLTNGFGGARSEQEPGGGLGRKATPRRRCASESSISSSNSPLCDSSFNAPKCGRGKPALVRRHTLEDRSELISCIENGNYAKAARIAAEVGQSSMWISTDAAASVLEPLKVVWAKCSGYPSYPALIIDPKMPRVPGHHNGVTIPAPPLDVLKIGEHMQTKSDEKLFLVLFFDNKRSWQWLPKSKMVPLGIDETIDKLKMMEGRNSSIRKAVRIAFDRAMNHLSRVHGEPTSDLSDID
EP300, sequence (Q09472 whole entry): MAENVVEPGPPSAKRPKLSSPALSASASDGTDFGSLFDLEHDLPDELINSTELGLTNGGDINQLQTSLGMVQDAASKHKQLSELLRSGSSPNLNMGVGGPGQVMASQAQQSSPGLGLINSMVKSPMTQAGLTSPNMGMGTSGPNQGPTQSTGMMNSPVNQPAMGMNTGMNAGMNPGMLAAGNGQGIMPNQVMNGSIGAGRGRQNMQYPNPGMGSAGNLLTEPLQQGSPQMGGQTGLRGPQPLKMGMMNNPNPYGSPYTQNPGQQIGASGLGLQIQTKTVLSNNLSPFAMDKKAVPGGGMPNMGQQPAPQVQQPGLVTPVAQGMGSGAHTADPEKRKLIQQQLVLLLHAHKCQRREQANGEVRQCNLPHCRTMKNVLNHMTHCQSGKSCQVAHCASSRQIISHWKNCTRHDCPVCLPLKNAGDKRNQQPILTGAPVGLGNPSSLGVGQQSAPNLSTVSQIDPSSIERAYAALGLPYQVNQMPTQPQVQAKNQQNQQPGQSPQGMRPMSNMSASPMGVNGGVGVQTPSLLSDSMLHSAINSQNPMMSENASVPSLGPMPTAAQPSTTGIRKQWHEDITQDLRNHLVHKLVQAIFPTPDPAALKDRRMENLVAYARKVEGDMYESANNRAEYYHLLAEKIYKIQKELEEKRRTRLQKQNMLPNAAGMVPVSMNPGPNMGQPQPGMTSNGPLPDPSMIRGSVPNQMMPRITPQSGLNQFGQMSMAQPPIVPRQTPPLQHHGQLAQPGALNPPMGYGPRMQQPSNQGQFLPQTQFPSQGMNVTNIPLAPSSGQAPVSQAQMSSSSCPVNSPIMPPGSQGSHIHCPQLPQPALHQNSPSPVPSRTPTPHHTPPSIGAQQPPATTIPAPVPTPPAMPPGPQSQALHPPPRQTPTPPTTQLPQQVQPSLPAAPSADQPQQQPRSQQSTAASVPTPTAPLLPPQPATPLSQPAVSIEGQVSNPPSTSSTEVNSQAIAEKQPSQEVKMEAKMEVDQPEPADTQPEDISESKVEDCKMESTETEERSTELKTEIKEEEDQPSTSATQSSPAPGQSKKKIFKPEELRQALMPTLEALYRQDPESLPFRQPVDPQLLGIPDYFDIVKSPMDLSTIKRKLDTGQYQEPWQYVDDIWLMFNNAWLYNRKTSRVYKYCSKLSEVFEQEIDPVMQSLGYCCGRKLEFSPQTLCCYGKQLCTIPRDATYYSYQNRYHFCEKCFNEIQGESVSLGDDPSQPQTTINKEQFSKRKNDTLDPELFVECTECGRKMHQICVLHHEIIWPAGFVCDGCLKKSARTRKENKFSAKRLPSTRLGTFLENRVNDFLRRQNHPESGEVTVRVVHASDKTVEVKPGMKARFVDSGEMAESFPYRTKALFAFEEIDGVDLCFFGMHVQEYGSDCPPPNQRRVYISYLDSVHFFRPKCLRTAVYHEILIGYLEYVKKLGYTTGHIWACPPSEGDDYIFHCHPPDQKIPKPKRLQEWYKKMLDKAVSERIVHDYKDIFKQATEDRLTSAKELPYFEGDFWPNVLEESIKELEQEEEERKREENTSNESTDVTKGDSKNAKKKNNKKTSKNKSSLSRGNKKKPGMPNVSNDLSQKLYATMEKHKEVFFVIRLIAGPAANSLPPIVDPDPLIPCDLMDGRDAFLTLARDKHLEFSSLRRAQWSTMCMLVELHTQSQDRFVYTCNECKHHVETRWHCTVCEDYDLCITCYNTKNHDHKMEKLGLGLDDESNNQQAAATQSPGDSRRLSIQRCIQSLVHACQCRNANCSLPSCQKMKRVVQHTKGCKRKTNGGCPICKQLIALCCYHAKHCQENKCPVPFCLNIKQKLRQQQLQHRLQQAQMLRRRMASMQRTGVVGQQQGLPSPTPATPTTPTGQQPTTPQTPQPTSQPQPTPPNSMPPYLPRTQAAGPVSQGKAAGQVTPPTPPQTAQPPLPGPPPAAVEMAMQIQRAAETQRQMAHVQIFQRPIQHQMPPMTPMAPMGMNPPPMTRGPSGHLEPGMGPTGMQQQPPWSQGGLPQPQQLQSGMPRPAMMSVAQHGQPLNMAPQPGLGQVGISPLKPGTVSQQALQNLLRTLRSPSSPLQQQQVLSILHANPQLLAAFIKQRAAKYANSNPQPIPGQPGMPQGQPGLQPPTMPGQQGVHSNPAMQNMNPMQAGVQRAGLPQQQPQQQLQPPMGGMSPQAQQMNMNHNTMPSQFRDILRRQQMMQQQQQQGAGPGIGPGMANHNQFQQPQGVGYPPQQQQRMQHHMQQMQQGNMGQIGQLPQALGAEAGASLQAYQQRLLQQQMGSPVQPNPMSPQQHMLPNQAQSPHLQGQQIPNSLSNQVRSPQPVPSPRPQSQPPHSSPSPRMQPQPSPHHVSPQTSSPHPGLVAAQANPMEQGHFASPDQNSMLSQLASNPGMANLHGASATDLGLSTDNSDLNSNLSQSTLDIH
PBRM1(5), sequence (Q86U86 653-763): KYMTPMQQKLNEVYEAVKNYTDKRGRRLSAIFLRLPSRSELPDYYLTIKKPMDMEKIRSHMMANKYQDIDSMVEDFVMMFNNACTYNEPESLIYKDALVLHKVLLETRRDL
BRD3(1), sequence (Q15059 34-140): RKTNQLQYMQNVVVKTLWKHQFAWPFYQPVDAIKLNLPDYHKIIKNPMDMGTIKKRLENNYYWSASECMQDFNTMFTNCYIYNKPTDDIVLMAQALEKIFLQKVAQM

Ki (BRD4 bromodomain 1): < 100 nM
IC50 [1]: 15 nM
Ki (BRD4 bromodomain 2): < 100 nM
Structure (SMILES): CCS(=O)(=O)Nc1cc(-c2cn(C)c3c(O)nccc23)cc2c1cnn2Cc1ccc(F)cc1 [Compound 31, N-(1-(4-fluorobenzyl)-6-(7-hydroxy-1-methyl-1H-pyrrolo[2,3-c]pyridin-3-yl)-1H-indazol-4-yl)ethanesulfonamide]

binding affinity for BET family (BET family proteins): subnanomolar potency
Kd (PBRM1(5)): 6100 nM
Kd (BRD3(1)): 0.34 nM
Kd (TAF1L(2)): 44 nM
Kd (TAF1(2)): 9.1 nM
Kd (BAZ2A): 3500 nM
Kd (BRDT(1, 2)): 0.23 nM
Kd (BRD2(1)): 0.27 nM
Kd (BRD9): 3500 nM
Kd (BRD3(2)): 0.61 nM
Kd (CECR2): 6000 nM
Kd (BRDT(2)): 1.4 nM
Kd (BRD3(1, 2)): 0.27 nM
Kd (BRD1): 7700 nM
Kd (BRD8(1)): 4900 nM
Kd (CREBBP): 110 nM
Kd (BRD2(2)): 0.77 nM
Kd (BRPF1): 360 nM
Kd (BRDT(1)): 0.14 nM
Kd (BRD2(1, 2)): 0.57 nM
Kd (TRIM24(Bromo.)): 4400 nM
Kd (EP300): 37 nM
IC50 [1]: 0.9 nM
Structure (SMILES): CCS(=O)(=O)Nc1cc(-c2cn(C)c3c(=O)[nH]ccc23)cc2c1ccn2C(C)(c1ccccn1)c1ccccn1 [Compound 70]
efficacy in inhibiting the growth of 3D spheroids [2]: more efficacious than JQ1 and AZD-5153
growth inhibition in comparison with clinical benchmark BET inhibitors ([1]; FIG. 10, vs BMS-98615, ABBV-075, AVR-771, AZD-5153, I-BET-762 and JQ1): superior potency

Ki (BRD4 bromodomain 1): < 100 nM
IC50 [1]: 40 nM
Ki (BRD4 bromodomain 2): < 100 nM
Structure (SMILES): Cn1cc(-c2cc(NS(C)(=O)=O)c3cnn(Cc4ccc(F)cc4)c3c2)c2ccnc(O)c21 [Compound 30, N-(1-(4-fluorobenzyl)-6-(7-hydroxy-1-methyl-1H-pyrrolo[2,3-c]pyridin-3-yl)-1H-indazol-4-yl)methanesulfonamide]

Ki (BRD4 bromodomain 1): < 100 nM
IC50 [1]: 17 nM
Ki (BRD4 bromodomain 2): < 100 nM
Structure (SMILES): Cn1cc(-c2cc(NS(C)(=O)=O)c3ccn(Cc4ccc(F)cc4)c3c2)c2ccnc(O)c21 [Compound 23, N-(1-(4-fluorobenzyl)-6-(7-hydroxy-1-methyl-1H-pyrrolo[2,3-c]pyridin-3-yl)-1-indol-4-yl)methanesulfonamide]

Ki (BRD4 bromodomain 1): < 10 nM
IC50 [1]: 10 nM
Ki (BRD4 bromodomain 2): < 10 nM
Structure (SMILES): CC(=O)Nc1cc(-c2cn(C)c3c(=O)[nH]ccc23)cc2c1ccn2C(C)(c1ccccn1)c1ccccn1 [Compound 71, N-(1-(1,1-di(pyridin-2-yl)ethyl)-6-(1-methyl-7-oxo-6,7-dihydro-1H-pyrrolo[2,3-c]pyridin-3-yl)-1H-indol-4-yl)acetamide]

Ki (BRD4 bromodomain 1): < 10 nM
IC50 [1]: 20 nM
Ki (BRD4 bromodomain 2): < 10 nM
Structure (SMILES): Cn1cc(-c2cc(C(C)(C)O)c3ccn(C(C)(c4ccccn4)c4ccccn4)c3c2)c2cc[nH]c(=O)c21 [Compound 72, 3-(1-(1,1-di(pyridin-2-yl)ethyl)-4-(2-hydroxypropan-2-yl)-1H-indol-6-yl)-1-methyl-1H-pyrrolo[2,3-c]pyridin-7(6H)-one]

IC50 [1]: > 100 nM
Structure (SMILES): CCC(=O)N(c1cc(-c2cn(C)c3c(=O)[nH]ccc23)cc2c1ccn2Cc1c(C)cccc1Cl)C1CC1 [Compound 78, N-(1-(2-chloro-6-methylbenzyl)-6-(7-hydroxy-1-methyl-1H-pyrrolo[2,3-c]pyridin-3-yl)-1H-indol-4-yl)-N-cyclopropylpropionamide]

IC50 [1]: < 1000 nM
Structure (SMILES): C=CC(=O)Cn1cc(-c2cc(NS(C)(=O)=O)c3ccn(Cc4ccc(F)cc4)c3c2)c2ccnc(O)c21 [Compound 88, N-(1-(4-fluorobenzyl)-6-(7-hydroxy-1-(2-oxobut-3-en-1-yl)-1H-pyrrolo[2,3-c]pyridin-3-yl)-1H-indol-4-yl)methanesulfonamide]

IC50 [1]: > 100 nM
Structure (SMILES): CCS(=O)(=O)Nc1cc(-c2cn(C)c3c(O)nccc23)cc2c1cnn2Cc1cccc2c1ccn2C [Compound 45, N-(6-(7-hydroxy-1-methyl-1H-pyrrolo[2,3-c]pyridin-3-yl)-1-((1-methyl-1H-indol-4-yl)methyl)-1H-indazol-4-yl)ethanesulfonamide]

IC50 [1]: < 1000 nM
Structure (SMILES): CCS(=O)(=O)Nc1cc(-c2cn(C)c3c(=O)[nH]ccc23)cc2c1ccn2C(C)(c1nccn1C)c1nccn1C [Compound 75, N-(1-(1,1-bis(1-methyl-1H-imidazol-2-yl)ethyl)-6-(7-hydroxy-1-methyl-1H-pyrrolo[2,3-c]pyridin-3-yl)-1H-indol-4-yl)ethanesulfonamide]

IC50 [1]: < 1000 nM
Structure (SMILES): Cn1cc(-c2cc3c(NS(C)(=O)=O)cccc3n2[C@@H](c2ccccc2)C2CCOCC2)c2ccnc(O)c21 [Compound 123, (R)-N-(2-(7-hydroxy-1-methyl-1H-pyrrolo[2,3-c]pyridin-3-yl)-1-(phenyl(tetrahydro-2H-pyran-4-yl)methyl)-1H-indol-4-yl)methanesulfonamide]
